Measured values: patent US11555032B2, “Isoxazole derivatives as FXR agonists and methods of use thereof” (Enanta Pharmaceuticals, Inc., priority 2019, dated 2023)

target: T1, human FXR (NR1H4) (Homo sapiens, UniProt Q96RI1); assay: Human FXR (NRIH4) Assay, luciferase reporter; type: cell-based; details: CHO reporter cells expressing human NR1H4, luciferase, 22 hours incubation
T1 construct: host or cells: CHO (Chinese hamster ovary) reporter cells
T1 sequence (Q96RI1 1-486): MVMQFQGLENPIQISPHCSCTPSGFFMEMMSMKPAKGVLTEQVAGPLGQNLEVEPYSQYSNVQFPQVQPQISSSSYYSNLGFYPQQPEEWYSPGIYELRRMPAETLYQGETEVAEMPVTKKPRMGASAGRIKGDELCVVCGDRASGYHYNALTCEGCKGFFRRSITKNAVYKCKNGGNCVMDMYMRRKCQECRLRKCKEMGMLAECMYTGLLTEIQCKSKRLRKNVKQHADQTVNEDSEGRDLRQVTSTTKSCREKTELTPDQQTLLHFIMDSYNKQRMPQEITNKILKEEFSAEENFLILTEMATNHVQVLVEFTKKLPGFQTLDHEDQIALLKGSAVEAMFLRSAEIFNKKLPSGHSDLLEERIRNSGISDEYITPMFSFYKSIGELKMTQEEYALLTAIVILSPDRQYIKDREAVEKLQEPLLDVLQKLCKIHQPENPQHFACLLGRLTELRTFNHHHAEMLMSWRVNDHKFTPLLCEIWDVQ
Source text: Determination of a ligand mediated Gal4 promoter driven transactivation to quantify ligand binding mediated activation of FXR. FXR Reporter Assay kit purchased from Indigo Bioscience (Catalogue number: IB00601) to determine the potency and efficacy of compound developed by Enanta that can induce FXR activation. The principle application of this reporter assay system is to quantify functional activity of human FXR. The assay utilizes non-human mammalian cells, CHO (Chinese hamster ovary) cells engineered to express human NR1H4 protein (referred to as FXR). Reporter cells also incorporate the cDNA encoding beetle luciferase which catalyzes the substrates and yields photon emission. Luminescence intensity of the reaction is quantified using a plate-reading luminometer, Envision. Reporter Cells include the luciferase reporter gene functionally linked to an FXR responsive promoter. Thus, quantifying changes in luciferase expression in the treated reporter cells provides a sensitive surrogate measure of the changes in FXR activity. EC50 and efficacy (normalize to CDCA set as 100%) is determined by XLFit. The assay is according to the manufacturer's instructions. In brief, the assay was performed in white, 96 well plates using final volume of 100 ul containing cells with different doses of compounds. Retrieve Reporter Cells from −80° C. storage. Perform a rapid thaw of the frozen cells by transferring a 10 ml volume of 37° C. cell recovery medium into the tube of frozen cells. Recap the tube of Reporter Cells and immediately place it in a 37° C. water bath for 5-10 minutes. Retrieve the tube of Reporter Cell Suspension from the water bath. Sanitize the outside surface of the tube with a 70% alcohol swab, and then transfer it into the cell culture hood. Dispense 90 μl of cell suspension into each well of the 96-well Assay Plate. Transfer the plate into 37° C. incubator, allowing the cells adherent to the bottom of the well. Dilute compounds in Dilution Plate (DP), and administrate to cells at Assay Plate (AP). DMSO content of the samples was kept at 0.2%. Cells were incubated for additional 22 hours before luciferase activities were measured. Thirty minutes before intending to quantify FXR activity, remove Detection Substrate and Detection Buffer from the refrigerator and place them in a low-light area so that they may equilibrate to room temperature. Remove the plate's lid and discard all media contents by ejecting it into an appropriate waste container. Gently tap the inverted plate onto a clean absorbent paper towel to remove residual droplets. Cells will remain tightly adhered to well bottoms. Add 100 μl of luciferase detection reagent to each well of the assay plate. Allow the assay plate to rest at room temperature for at least 5 minutes following the addition of LDR. Set the instrument (Envision) to perform a single 5 second “plate shake” prior to reading the first assay well. Read time may be 0.5 second (500 mSec) per well. EC50 and Efficacy (normalize to CDCA set as 100%) is determined by XLFit.
The efficacy was normalized to CDCA set as 100%.

| Compound | EC50 [µM] |
| --- | --- |
| O=C(O)c1ccc2nc(NC3C4CCC3CC(OCc3c(-c5ccccc5OC(F)(F)F)noc3C3CC3)C4)cnc2c1 (stereo not shown) [Example 29] | < 0.025 |
| O=C(O)c1ccc2c(c1)CN(C1C3CCC1CC(OCc1c(-c4c(Cl)cccc4Cl)noc1C1CC1)C3)C2 (stereo not shown) [Example 17] | 0.025 to 0.5 |
| COC(=O)c1ccc2cc(SC3C4CCC3CC(OCc3c(-c5ccccc5OC(F)(F)F)noc3C3CC3)C4)ccc2c1 [Example 11, methyl 6-(((1R,3r,5S,8s)-3-((5-cyclopropyl-3-(2-(trifluoromethoxy)phenyl)isoxazol-4-yl)methoxy)bicyclo[3.2.1]octan-8-yl)thio)-2-naphthoate] | 0.025 to 0.5 |
| O=C(O)c1ccc2c(S(=O)(=O)NC3C4CCC3CC(OCc3c(-c5ccccc5OC(F)(F)F)noc3C3CC3)C4)cccc2c1 [Example 9, 5-(N-((1R,3r,5S,8s)-3-((5-cyclopropyl-3-(2-(trifluoromethoxy)phenyl)isoxazol-4-yl)methoxy)bicyclo[3.2.1]octan-8-yl)sulfamoyl)-2-naphthoic acid] | < 0.025 |
| N#Cc1cc(C2CC2)c2nc(NC3C4CCC3CC(OCc3c(-c5ccccc5OC(F)(F)F)noc3C3CC3)C4)sc2c1 (stereo not shown) [Example 38] | 0.025 to 0.5 |
| N#Cc1cc(C2CC2)cc2nc(NC3C4CCC3CC(OCc3c(-c5ccccc5OC(F)(F)F)noc3C3CC3)C4)cnc12 (stereo not shown) [Example 27] | 0.025 to 0.5 |
| CC(C)Oc1cc(C(=O)O)cc2sc(N[C@H]3C[C@@H]4C[C@H]3C[C@@H]4OCc3c(-c4ccccc4OC(F)(F)F)noc3C3CC3)nc12 [Example 5] | 0.025 to 0.5 |

Further lines, results first:

| EC50 [µM] | Compound |
| --- | --- |
| 0.025 to 0.5 | NS(=O)(=O)c1ccc2nc(NC3C4CCC3CC(OCc3c(-c5ccccc5OC(F)(F)F)noc3C3CC3)C4)cnc2c1 (stereo not shown) [Example 8-2] |
| 0.025 to 0.5 | N#Cc1ccc(NC2C3CCC2CC(OCc2c(-c4ccccc4OC(F)(F)F)noc2C2CC2)C3)nc1 [Example 8-4, 6-(((1R,3r,5S,8s)-3-((5-cyclopropyl-3-(2-(trifluoromethoxy)phenyl)isoxazol-4-yl)methoxy)bicyclo[3.2.1]octan-8-yl)amino)nicotinonitrile] |
| < 0.025 | COC(=O)c1ccc2cc(S(=O)(=O)NC3C4CCC3CC(OCc3c(-c5ccccc5OC(F)(F)F)noc3C3CC3)C4)ccc2c1 (stereo not shown) [Example 9-6] |
| 0.025 to 0.5 | O=C(O)c1ccc(SC2C3CCC2CC(OCc2c(-c4ccccc4OC(F)(F)F)noc2C2CC2)C3)cc1 (stereo not shown) [Example 11-13] |
| < 0.025 | FC(F)(F)Oc1ccccc1-c1noc(C2CC2)c1COC1CC2CCC(C1)C2Nc1nc2c(C3CC3)cc(-c3nnn[nH]3)cc2s1 (stereo not shown) [Example 13-5] |
| < 0.025 | O=S(=O)(NC1C2CCC1CC(OCc1c(-c3ccccc3OC(F)(F)F)noc1C1CC1)C2)c1ccc2ccccc2c1 (stereo not shown) [Example 9-12] |
| < 0.025 | O=C(O)c1cccc2nc(NC3C4CCC3CC(OCc3c(-c5ccccc5OC(F)(F)F)noc3C3CC3)C4)cnc12 (stereo not shown) [Example 3-7] |
| < 0.025 | O=C(O)c1ccc2nc(NC3C4CCC3CC(OCc3c(-c5ccccc5OC(F)(F)F)noc3C3CC3)C4)ncc2c1 (stereo not shown) [Example 3-12] |
| 0.025 to 0.5 | COC(=O)c1ccc2cc(S(=O)(=O)C3C4CCC3CC(OCc3c(-c5ccccc5OC(F)(F)F)noc3C3CC3)C4)ccc2c1 [Example 11-3, methyl 6-(((1R,3r,5S,8s)-3-((5-cyclopropyl-3-(2-(trifluoromethoxy)phenyl)isoxazol-4-yl)methoxy)bicyclo[3.2.1]octan-8-yl)sulfonyl)-2-naphthoate] |
| 0.025 to 0.5 | COC(=O)c1ccc2nc(SC3C4CCC3CC(OCc3c(-c5ccccc5OC(F)(F)F)noc3C3CC3)C4)sc2c1 (stereo not shown) [Example 11-9] |
| < 0.025 | O=C(O)c1ccc2nc(SC3C4CCC3CC(OCc3c(-c5ccccc5OC(F)(F)F)noc3C3CC3)C4)sc2c1 (stereo not shown) [Example 11-10] |
| > 0.5 | O=C(O)c1ccccc1S(=O)(=O)NC1C2CCC1CC(OCc1c(-c3ccccc3OC(F)(F)F)noc1C1CC1)C2 (stereo not shown) [Example 9-9] |
| 0.025 to 0.5 | O=C(O)c1ccc(S(=O)(=O)C2C3CCC2CC(OCc2c(-c4ccccc4OC(F)(F)F)noc2C2CC2)C3)cc1 (stereo not shown) [Example 11-15] |
| < 0.025 | O=S(=O)(NC1C2CCC1CC(OCc1c(-c3ccccc3OC(F)(F)F)noc1C1CC1)C2)c1cccc2cnccc12 (stereo not shown) [Example 9-14] |
| 0.025 to 0.5 | COC(=O)c1cccc2c(S(=O)(=O)NC3C4CCC3CC(OCc3c(-c5ccccc5OC(F)(F)F)noc3C3CC3)C4)cccc12 (stereo not shown) [Example 9-4] |
